Assay results as given in patent US20250049660A1, “ENOL ETHER PROPERFUME” (FIRMENICH SA, priority 2021, published 2025).

Assay: Acid-catalyzed hydrolysis of enol ethers in THF/1 M HCl
Format: physicochemical
Conditions: THF/1M HCl (80:20 v/v), room temperature; for Hydrolysis of enol ethers, percent remaining, initial: initial (time zero)
Description: The acid-catalyzed hydrolysis of Compounds 1, 2, 3 and 25 were measured and compared to the hydrolysis of enol ethers report in WO2019243501. Each enol ether was dissolved in a 4:1 THF/1 M HCl mixture and the percent remaining over time measured relative to an internal standard.
Into a 15 mL vial were added 125 mg of enol ether, 60 mg of hexadecane and 10 mL of THE (purged with N2 and containing 2500 ppm of BHT). After mixing, 2 mL of this solution were removed with a volumetric pipet and used to obtain the time zero measurement. 2 mL of 1 M HCl were mixed with the remaining 8 mL of the THF solution. This mixture was divided into 5 mL vials (1 mL per vial). The vials were gently topped with nitrogen and fitted with screw caps around which parafilm was wrapped. The vials were stored at room temperature until analyzed. For analyses, 2 mL of ethyl acetate was added to a vial and mixed. After phase separation, the top phase was collected and washed with saturated sodium carbonate (1 mL). Samples of the organic phase were analyzed by GC-FID. For the time zero sample, 0.5 mL of deionized water was added to the 2 mL taken from the original THE solution. 1 mL of this solution was added to a 5 mL vial and diluted with 2 mL of ethyl acetate and mixed. The top phase was collected and washed with saturated sodium carbonate (1 mL). The top phase then was analyzed by GC-FID. The percent of enol ether remaining was determined by dividing the peak area ratio of the enol ether to internal standard by the ratio measured at time zero.

CCCCCCCCCC(C)C=COC(CC)CCCCC (stereo not shown) [Compound 29, 3-methyl-1-(octan-3-yloxy)dodec-1-ene]
Hydrolysis of enol ethers, percent remaining, 5 h: 3.7% | Hydrolysis of enol ethers, percent remaining, initial: 100%

CC/C=C\CCOC=Cc1ccccc1 [(2-(((Z)-hex-3-en-1-yl)oxy)vinyl)benzene, reference compound]
Hydrolysis of enol ethers, percent remaining, 3 d: 79.5% | Hydrolysis of enol ethers, percent remaining, 7 d: 57.3% | Hydrolysis of enol ethers, percent remaining, initial: 100%

CCCCCC(CC)OC=Cc1ccccc1 (stereo not shown) [(2-(octan-3-yloxy)vinyl)benzene, reference compound]
Hydrolysis of enol ethers, percent remaining, 1 d: 84.9% | Hydrolysis of enol ethers, percent remaining, 2 d: 72.0% | Hydrolysis of enol ethers, percent remaining, 3 d: 61.7% | Hydrolysis of enol ethers, percent remaining, 7 d: 33.6% | Hydrolysis of enol ethers, percent remaining, initial: 100%

CC/C=C\CCOC=Cc1ccc(OC)cc1 [1-(2-(((Z)-hex-3-en-1-yl)oxy)vinyl)-4-methoxybenzene, reference compound]
Hydrolysis of enol ethers, percent remaining, 1 d: 89.1% | Hydrolysis of enol ethers, percent remaining, 2 d: 80.2% | Hydrolysis of enol ethers, percent remaining, 3 d: 72.4% | Hydrolysis of enol ethers, percent remaining, 7 d: 52.5% | Hydrolysis of enol ethers, percent remaining, initial: 100%

CC/C=C\CCOC=CC(C)CCCCCCCCC (stereo not shown) [Compound 27, 1-(((Z)-hex-3-en-1-yl)oxy)-3-methyldodec-1-ene]
Hydrolysis of enol ethers, percent remaining, 5 h: 29.8% | Hydrolysis of enol ethers, percent remaining, initial: 100%

CCCCCCCCCCCC=COCCc1ccccc1 [Compound 2, (2-(tridec-1-en-1-yloxy)ethyl)benzene]
Hydrolysis of enol ethers, percent remaining, 5 h: 16.3% | Hydrolysis of enol ethers, percent remaining, 1 d: 0% | Hydrolysis of enol ethers, percent remaining, 2 d: 0% | Hydrolysis of enol ethers, percent remaining, 3 d: 0% | Hydrolysis of enol ethers, percent remaining, 7 d: 0% | Hydrolysis of enol ethers, percent remaining, initial: 100%

CCCCCCCCCC(C)C=COCCc1ccccc1 (stereo not shown) [Compound 25, (2-((3-methyldodec-1-en-1-yl)oxy)ethyl)benzene]
Hydrolysis of enol ethers, percent remaining, 5 h: 35.6% | Hydrolysis of enol ethers, percent remaining, 1 d: 4.6% | Hydrolysis of enol ethers, percent remaining, 2 d: 0% | Hydrolysis of enol ethers, percent remaining, 3 d: 0% | Hydrolysis of enol ethers, percent remaining, 7 d: 0% | Hydrolysis of enol ethers, percent remaining, initial: 100%

C(=Cc1ccccc1)OCCc1ccccc1 [(2-phenethoxyvinyl)benzene, reference compound]
Hydrolysis of enol ethers, percent remaining, 1 d: 95% | Hydrolysis of enol ethers, percent remaining, 2 d: 90% | Hydrolysis of enol ethers, percent remaining, 3 d: 83.7% | Hydrolysis of enol ethers, percent remaining, 7 d: 66.4% | Hydrolysis of enol ethers, percent remaining, initial: 100%

C=CCCCCCCCC=COCCc1ccccc1 [Compound 3, (2-(undeca-1,10-dien-1-yloxy)ethyl)benzene]
Hydrolysis of enol ethers, percent remaining, 5 h: 19.9% | Hydrolysis of enol ethers, percent remaining, 1 d: 0% | Hydrolysis of enol ethers, percent remaining, 2 d: 0% | Hydrolysis of enol ethers, percent remaining, 3 d: 0% | Hydrolysis of enol ethers, percent remaining, 7 d: 0% | Hydrolysis of enol ethers, percent remaining, initial: 100%

CCCCCCCCCCC=COCCc1ccccc1 [Compound 1, (2-(dodec-1-en-1-yloxy)ethyl)benzene]
Hydrolysis of enol ethers, percent remaining, 5 h: 12.8% | Hydrolysis of enol ethers, percent remaining, 1 d: 0% | Hydrolysis of enol ethers, percent remaining, 2 d: 0% | Hydrolysis of enol ethers, percent remaining, 3 d: 0% | Hydrolysis of enol ethers, percent remaining, 7 d: 0% | Hydrolysis of enol ethers, percent remaining, initial: 100%
